Where two headings read alike, the source gives them in different places.
T1: nucleoside hydrolase (Crithidia fasciculata, UniProt Q27546)
T1 construct: nucleoside hydrolase was purified from C. fasciculata as described above; endogenous in cells; host or cells: Crithidia fasciculata cells grown in a 300-liter fermenter
T1 sequence (Q27546 1-315): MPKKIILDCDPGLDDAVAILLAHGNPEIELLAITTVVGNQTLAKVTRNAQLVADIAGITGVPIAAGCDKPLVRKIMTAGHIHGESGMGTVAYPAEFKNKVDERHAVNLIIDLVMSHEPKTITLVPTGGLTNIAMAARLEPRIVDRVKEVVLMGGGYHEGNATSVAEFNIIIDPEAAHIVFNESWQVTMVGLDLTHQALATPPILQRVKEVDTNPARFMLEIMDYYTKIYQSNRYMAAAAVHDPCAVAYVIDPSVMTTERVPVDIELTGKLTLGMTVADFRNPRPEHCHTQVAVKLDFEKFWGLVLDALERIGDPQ


What was measured:
IU-nucleoside hydrolase [1] = target: T2, IU-nucleoside hydrolase (Crithidia fasciculata, UniProt Q27546, P2A); assay: biochemical; type: biochemical, C. fasciculata; conditions: for inhibition pattern: minimum of four substrate and three inhibitor concentrations; for Ki: KI IU-nucleoside hydrolase, Table V
T2 construct: contained the coding region for the enzyme; made in house; host or cells: E. coli BL21 (DE3)pLysS, pET3d plasmid
T2 sequence (Q27546 whole entry P2A): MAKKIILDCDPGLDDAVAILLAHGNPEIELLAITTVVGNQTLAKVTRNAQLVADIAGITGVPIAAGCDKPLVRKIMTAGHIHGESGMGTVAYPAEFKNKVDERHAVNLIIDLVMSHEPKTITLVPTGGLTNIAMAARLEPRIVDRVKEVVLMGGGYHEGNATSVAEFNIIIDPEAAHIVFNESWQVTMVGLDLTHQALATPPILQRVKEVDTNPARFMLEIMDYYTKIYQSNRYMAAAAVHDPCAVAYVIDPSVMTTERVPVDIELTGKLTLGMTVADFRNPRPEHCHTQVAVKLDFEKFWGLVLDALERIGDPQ
Description: Enzymes. Inosine-uridine nucleoside hydrolase (IU-nucleoside hydrolase) was purified from extracts of E. coli strain BL21 (DE3)pLysS which contained the coding region for the enzyme isolated from C. fasciculata in a pET3d expression plasmid. The DNA coding for the enzyme was placed in the NcoI-BamHI site. This construct gives a Pro2Ala substitution which has no significant effect on the kinetic properties of the purified enzyme. The overexpressed enzyme was purified to apparent homogeneity as previously described (Gopaul, et al. (1996) Biochemistry 35, 5963-5970).
(§1) Enzyme Assays. Initial rate measurements were accomplished at 30° C. in reaction mixtures containing 50 mM potassium phosphate, pH 7.5, or 50 mM Hepes, pH 8.0, and nitrophenylribose or inosine as substrates (Mazella, et al. (1996) J. Am. Chem. Soc. 118, 2111-2112). At pH 7.5 the product p-nitrophenylate anion is present at a concentration which gives a millimolar extinction coefficient of 9.3 cm^-1 at 400 nm. Reaction mixtures with nitrophenylribose as substrate were initiated by the addition of enzyme, and product formation was monitored by continuous recording at 400 nm. With inosine as substrate, the conversion to hypoxanthine was monitored continuously at 280 nm (Parkin, et al. (1991) J. Biol. Chem. 266, 20658-20665). […] The remainder of the inhibitors were analyzed at one fixed substrate concentration and variable inhibitor concentrations. Inhibition constants for IAG-nucleoside hydrolase were established from full kinetic analysis with V and X as inhibitors. […] The remainder of the inhibition constants were characterized by titration of assay mixtures containing a fixed concentration of substrate with variable inhibitor concentrations. […] For Ki determination at a fixed substrate concentration, this approach assumes that substrate and inhibitor compete for the catalytic site.
Inhibitors. Iminoribitol inhibitor were synthesized and purified according to the methods of Furneaux, et al. (Tetrahedron (1997) in press), characterized by NMR, dissolved in H2 O and stored at -20° C. The compounds are enzymatically and chemically stable in H2 O and under conditions of the assay. IU-Nucleoside hydrolase is susceptible to slow-onset tight-binding inhibition under certain conditions (Horenstein & Schramm, (1993b) Biochemistry 32, 9917-9925, Boutellier, et al. (1994) Biochemistry, 33, 3994-4000). However, in the initial reaction rate conditions described here, only the rapidly reversible competition between substrate and inhibitor is being observed. Thus, the reported kinetic constants are dissociation constants which exclude slow-onset binding.

IAG-nucleoside hydrolase = IAG-nucleoside hydrolase (Trypanosoma brucei, UniProt Q57ZL6); assay: Inhibition of IAG-nucleoside hydrolase, initial rates; conditions: for inhibition pattern: full kinetic analysis
Experimental: The enzyme was purified to apparent homogeneity as determined by denaturing polyacrylamide gel electrophoresis (Parkin, (1996) J. Biol. Chem. 271, 21713-21719). Some of the studies used the T. brucei brucei enzyme which was overexpressed in E. coli.
as §1, with “concentrations.” for “concentrations. Inhibition constants for IAG-nucleoside hydrolase were established from full kinetic analysis with V and X as inhibitors.”
Inhibitors. Iminoribitol inhibitor were synthesized and purified according to the methods of Furneaux, et al. (Tetrahedron (1997) in press), characterized by NMR, dissolved in H2 O and stored at -20° C.

IU-nucleoside hydrolase [2] = target: T2, IU-nucleoside hydrolase; conditions: cited from earlier work
nucleoside hydrolase = target: T1, nucleoside hydrolase; assay: Inhibition of nucleoside hydrolase, inosine hydrolysis monitored at 280 nm, bis-tris pH 7.3; type: biochemical
Experimental: All assays were performed at 30° C. in 50 mM bis-tris buffer at pH 7.3. The substrate for all assays was inosine. Inhibition studies were performed by examining the initial velocity of the hydrolysis of inosine as a function of inosine concentration and (2S)-phenyl-(3S,4R)-dihydroxy-(5R)-hydroxymethylpyrrolidine concentration. A total of 75 velocity measurements were made.
The general protocol for measurement was as follows: various concentrations of inosine and inhibitor in the above buffer were prepared, and 1.0 mL aliquots placed in a quartz cuvette and equilibrated at 30° C. […] The decrease in absorption at 280 nm was monitored over a 10 minute period.

[3] = substrate: OC[C@H]1O[C@@H](n2cnc3c(O)ncnc32)[C@H](O)[C@@H]1O; assay: purified protein, by the assay type; conditions: other: inosine as substrate; 30.0 °C
Description: The IAG-nucleoside hydrolase was purified from the blood-stream form of T. brucei brucei (ILTaT 1.1) grown in sublethally irradiated (650 rads) Sprague-Dawley rats. The enzyme was purified to apparent homogeneity as determined by denaturing polyacrylamide gel electrophoresis (Parkin, (1996) J. Biol. Chem. 271, 21713-21719). Some of the studies used the T. brucei brucei enzyme which was overexpressed in E. coli.
At pH 7.5 the product p-nitrophenylate anion is present at a concentration which gives a millimolar extinction coefficient of 9.3 cm^-1 at 400 nm. Reaction mixtures with nitrophenylribose as substrate were initiated by the addition of enzyme, and product formation was monitored by continuous recording at 400 nm. […] The remainder of the inhibitors were analyzed at one fixed substrate concentration and variable inhibitor concentrations. […] The remainder of the inhibition constants were characterized by titration of assay mixtures containing a fixed concentration of substrate with variable inhibitor concentrations. […] For Ki determination at a fixed substrate concentration, this approach assumes that substrate and inhibitor compete for the catalytic site. In these cases, data were fit to the equation: 1/v=1/kcat +(Km /kcat A)(1+I/Ki)
The compounds are enzymatically and chemically stable in H2 O and under conditions of the assay. […]

Row | Molecule | inhibition pattern (IU-nucleoside hydrolase [1]) | Ki (IAG-nucleoside hydrolase) [nM] | Km /KI IAG-nucleoside hydrolase (IAG-nucleoside hydrolase) | Ki (IU-nucleoside hydrolase [1]) [nM] | also measured
1 | OC[C@H]1N[C@@H](c2ccccc2)[C@H](O)[C@@H]1O [V, phenyliminoribitol] | slope-linear competitive inhibitors | 180000 | 0.1 | – | Km /Ki IAG-nucleoside hydrolase (IAG-nucleoside hydrolase; Table VI, comparison with inosine): 0.1; inhibition pattern (IAG-nucleoside hydrolase): competitive inhibition; Ki (IU-nucleoside hydrolase [2]; read-out: KI IU-nucleoside hydrolase, from Horenstein and Schramm (1993b)): 300 nM; Ki (IU-nucleoside hydrolase [2]; read-out: Ki IU-nucleoside hydrolase, Table VI, taken from Horenstein and Schramm (1993b)): 300 nM
2 | OC[C@H]1N[C@@H](c2ccc(O)cc2)[C@H](O)[C@@H]1O [VII] | – | 35000 ± 2000 | 0.51 | 75 ± 4 | –
3 | OC[C@H]1N[C@@H](c2ccccc2)[C@H](O)[C@@H]1O [(2S)-phenyl-(3S,4R)-dihydroxy-(5R)-hydroxymethyl-pyrrolidine] | – | – | – | – | binding better than the substrate inosine (nucleoside hydrolase): approximately 2,000 fold; inhibition pattern (nucleoside hydrolase): competitive inhibition pattern; Ki (nucleoside hydrolase; read-out: inhibition constant): 150 nM
4 | Nc1cccc([C@@H]2N[C@H](CO)[C@@H](O)[C@H]2O)c1 [IX] | – | 38000 ± 4000 | 0.47 | 51 ± 4 | –
5 | OC[C@H]1NC[C@H](O)[C@@H]1O [I] | slope-linear competitive inhibitors | 44000 ± 4000 | 0.41 | – | Ki (IU-nucleoside hydrolase [2]; Table V, from Horenstein and Schramm (1993b), read-out: KI IU-nucleoside hydrolase): 4500 ± 400 nM
6 | O=[N+]([O-])c1ccc([C@@H]2N[C@H](CO)[C@@H](O)[C@H]2O)cc1 [IV] | – | > 360000 | < 0.05 | 1100 ± 100 | inhibition at highest concentration tested (IAG-nucleoside hydrolase; 80, 120, 120 and 160 μM II, III, IV and VI respectively, 75 μM inosine): NO inhibition was observed
7 | Nc1ccc([C@@H]2N[C@H](CO)[C@@H](O)[C@H]2O)cc1 [X] | – | 12000 ± 1000 | 1.5 | 30 ± 2 | binding compared to inosine (IAG-nucleoside hydrolase): binds as well as the preferred substrate, inosine; inhibition pattern (IAG-nucleoside hydrolase): competitive inhibition
8 | OC[C@H]1N[C@@H](c2ccc(Br)cc2)[C@H](O)[C@@H]1O [XII] | slope-linear competitive inhibitors | 113000 ± 5000 | 0.16 | 28 ± 4 | –
9 | IAG-nucleoside hydrolase (Trypanosoma brucei brucei TREU927) (protein) MAKTVILDHDGNKDDFVAMILLLSNPKKVNLIGCICTDADCFVENGFDVTGKIMCAMHRLIKTPLFPIGKSTATAVNAFPTEWRFSAKNLDDMPFLNIVEDVALWEKLKPENEAHNGQQLLADLVMKSKEKVTVCVTGPLSNMAWCIEKYGEAFTSKVEECVIMGGAVDVGGNVFLPTTDGSAEWNIYWDPPAAKKVLCCPNIRCVLFSLDATNTVPVRSVDVKGFGAQNQYLLSQMVGTMWAMSTHEEILRDGDAYYAWDALTAAYILEPTIATLEPVALDVDVSKGKSEGRTPRASGEGKPCVHVARNPSKQMFHDLVFASTRVC | – | – | – | – | Km [3]: 18 ± 1 µM

— patent US6121296A, “Transition-state inhibitors for nucleoside hydrolase and transferase reactions” (Albert Einstein College of Medicine of Yeshiva University, priority 1998, dated 2000)
